Reference: US20210316003A1 (Immunomedics, Inc., priority 2020, published 2021)
“And” between values parts separate entries of the source, which are not always exact repeats. Equal values may be shown once.

Experiments:
[1] = system: patients with diverse metastatic cancers; conditions: human, in vivo
Text: In the Phase I and the expansion phases, there are now 48 pts (excluding PDC) who are assessable by RECIST/CT for best response.

patients with mSCLC [2] = conditions: in vivo
Procedure: Doses of 8 or 10 mg/kg were given on days 1 and 8 of a 21-day cycle, with contingencies to delay (maximum of 2 weeks). Toxicities were managed by supportive hematopoietic growth-factor therapy for blood cell reduction, dose delays and/or modification as specified in the protocol (e.g., 25% of prior dose), or by standard medical practice. Treatment was continued until disease progression, initiation of alternative anticancer therapy, unacceptable toxicity, or withdrawal of consent.
Safety evaluations were conducted during scheduled visits or more frequently if warranted.
Statistical Analyses—The data included in the analyses were derived from patients enrolled from November 2013 to June 2016, with follow-up through Jan. […] The frequency and severity of adverse events (AEs) were defined by MedDRA Preferred Term and System Organ Class (SOC) version 10, with severity assessed by NCI-CTCAE v4.03.

patients with mSCLC [3] = assay: Phase I/II trial (NCT01631552), mSCLC: efficacy by RECIST 1.1; type: in vivo, human
Text: Patients ≥18 years of age with mSCLC who had relapsed or were refractory to at least one prior standard line of therapy for stage IV metastatic disease, and with measurable tumors by CT, were enrolled. […] Previous therapy had to be completed at least 4 weeks before enrollment.
The primary endpoint was the proportion of patients with a confirmed objective response, assessed approximately every 8 weeks until disease progression, by each institution's radiology group or a contracted local radiology service. Objective responses were assessed by Response Evaluation Criteria in Solid Tumors, version 1.1 (RECIST 1.1) (Eisenhauer et al., 2009, Eur J Cancer 45:228-47). Partial (PR) or complete responses (CR) required confirmation within 4 to 6 weeks after the initial response. Clinical benefit rate (CBR) is defined as those patients with an objective response plus stable disease (SD) ≥4 months. Survival was monitored every 3 months until death or withdrawal of consent.
The protocol provided that objective response rates (ORR) were determined for patients who received ≥2 doses (1 cycle) and had their initial 8-week CT assessment. Duration of response is defined in accordance to RECIST 1.1 criteria, with those having an objective response marked from time of the first evidence of response until progression, while stable disease duration is marked from the start of treatment until progression. PFS and OS were defined from the start of treatment until an objective assessment of progression was determined (PFS) or death (OS). Duration of response, PFS, and OS were estimated by Kaplan-Meier methods, with 95% confidence intervals (CI), using MedCalc Statistical Software, version 16.4.3 (Ostend, Belgium).

[4] = system: patients with metastatic TNBC; assay: Phase I/II trial (NCT01631552), metastatic TNBC: efficacy by RECIST 1.1; type: in vivo, human
Text: Patients with relapsed/refractory TNBC who had previously failed at at least one prior line of therapy were enrolled in a single-arm, multicenter trial (Bardia et al., 2019, N Engl J Med 380:741-51). The present study reports on 108 patients who had failed at least two prior lines of therapy (median three prior therapies) (Bardia et al., 2019, N Engl J Med 380:741-51). […] For severe treatment-related adverse events, a 25% dose reduction was allowed after the first occurrence, 50% after the second and discontinuation after the third. Of the 108 patients, 107 were female and 1 was male, with a median age of 55. Prior therapies included treatment with taxanes (98%), anthracyclines (86%), platinum agents (69%), gemcitabine (55%), eribulin (45%) and checkpoint inhibitors (17%). Tumor staging was performed by computed tomography (CT) and MRI at baseline, followed up at 8 week intervals from the start of treatment until disease progression.

[5] = SG as ≥3 line, no prior topotecan/irinotecan (N = 9)
[6] = SG as ≥3 line, prior topotecan/irinotecan (N = 15)
[7] = prior immune checkpoint inhibitor

sacituzumab govitecan
Anti-hRS7 or anti-SN-38 antibodies [1]: No anti-hRS7 or anti-SN-38 antibodies were detected | Anemia, grade 3 or 4 (patients with mSCLC [2]): 8% | Diarrhea, grade 3 or 4 (patients with mSCLC [2]): 9% | Fatigue, grade 3 or 4 (patients with mSCLC [2]): 13% | Hyponatremia, grade 3 or 4 (patients with mSCLC [2]): 8% | Increased alkaline phosphatase, grade 3 or 4 (patients with mSCLC [2]): 8% | Infusion-related reactions (patients with mSCLC [2]): No infusion-related reactions were reported | Neutropenia, grade 3 or 4 (patients with mSCLC [2]): 34% | Patients with dose reduction (patients with mSCLC [2]; 8 mg/kg): 13% | Duration of SD in ten patients with SD ≥4 months, Kaplan-Meier-derived median (patients with mSCLC [3]): 5.6 months | Median OS for the seven confirmed PR patients (patients with mSCLC [3]): 9.2 months | Median OS for the ten patients with SD ≥4 months (patients with mSCLC [3]): 8.3 months | Confirmed PR (patients with mSCLC [3]; 8 mg/kg starting dose, thirteen patients): 8% | Confirmed PR (patients with mSCLC [3]; 10 mg/kg starting dose (N = 30)): 20% | CBR (clinical benefit rate) (patients with mSCLC [3]; 10 mg/kg starting dose, 14/30): 47% | Patients with a reduction of tumor size from baseline (patients with mSCLC [3]; 21 of 43 CT-assessable patients): 49% | Stable disease (SD), including unconfirmed PR (patients with mSCLC [3]; 21 of 43 assessable patients): 49% | PD, % (patients with mSCLC [3]; 43 with response assessment): (35%) | Duration of confirmed objective response, median (patients with mSCLC [3]; Kaplan-Meier): 5.7 months | Clinical benefit rate (PR + SD ≥ 4 months), % (patients with mSCLC [3]; SG as second line (N = 19)): (37%) | OS, median (patients with mSCLC [3]; SG as second line (N = 19)): 8.1 months | PFS, median (patients with mSCLC [3]; SG as second line (N = 19)): 3.6 months | Clinical benefit rate (PR + SD ≥ 4 months), % (patients with mSCLC [3]; SG as ≥3 line (N = 24)): (38%) | OS, median (patients with mSCLC [3]; SG as ≥3 line (N = 24)): 7.0 months | PFS, median (patients with mSCLC [3]; SG as ≥3 line (N = 24)): 3.7 months | Clinical benefit rate (PR + SD ≥ 4 months), % (patients with mSCLC [3]; [5]): (33%) | OS, median (patients with mSCLC [3]; [5]): 5.5 months | PFS, median (patients with mSCLC [3]; [5]): 3.7 months | Clinical benefit rate (PR + SD ≥ 4 months), % (patients with mSCLC [3]; [6]): (40%) | OS, median (patients with mSCLC [3]; [6]): 8.8 months | PFS, median (patients with mSCLC [3]; [6]): 3.8 months and 3.6 months | Overall survival, median (patients with mSCLC [3]; intention-to-treat N = 53): 7.0 months | Progression-free survival, median (patients with mSCLC [3]; intention-to-treat N = 53): 3.6 months | Tumor shrinkage (SD lasting 8.7 months), single patient (patients with mSCLC [3]; [7]): 17% | Tumor shrinkage on first assessment (unconfirmed PR), single patient (patients with mSCLC [3]; [7]): 54% | Clinical benefit rate (PR + SD ≥ 4 months), % (patients with mSCLC [3]; resistant (N = 19) to 1st line): (26%) | OS, median (patients with mSCLC [3]; resistant (N = 19) to 1st line): 6.2 months | PFS, median (patients with mSCLC [3]; resistant (N = 19) to 1st line): 3.6 months | Confirmed PR (patients with mSCLC [3]; resistant to first-line platinum, nineteen patients): 16% | PR (patients with mSCLC [3]; second-line setting, 3/19): 16% | Clinical benefit rate (PR + SD ≥ 4 months), % (patients with mSCLC [3]; sensitive (N = 24) to 1st line): (50%) | OS, median (patients with mSCLC [3]; sensitive (N = 24) to 1st line): 8.3 months | PFS, median (patients with mSCLC [3]; sensitive (N = 24) to 1st line): 3.8 months | Confirmed PR (patients with mSCLC [3]; sensitive to first-line platinum, 24 patients): 17% | Median time to response (patients with mSCLC [3]; seven confirmed PR): 2.0 months | Median PFS for the confirmed PR group (patients with mSCLC [3]; seven patients): 7.9 months | Confirmed PR (patients with mSCLC [3]; third or higher line (N = 24)): 16% | Response rate among patients who had failed previous checkpoint inhibitor therapy [4]: 44% | Complete responses (CR) ([4]; 10 mg/kg, N = 108): 2.8% | Median overall survival ([4]; 10 mg/kg, N = 108): 13.0 months | Median progression-free survival ([4]; 10 mg/kg, N = 108): 5.5 months | Estimated probability that a patient would exhibit a response at 6 months ([4]; 36 responders): 59.7% | Estimated probability that a patient would exhibit a response at 12 months ([4]; 36 responders): 27.0% | Median duration of response ([4]; 36 responders): 7.7 months | Median time to response ([4]; 36 responders): 2.0 months | Patients with long-term responses of more than 12 months ([4]; at data cutoff): 6 | Response rate (CR+PR) ([4]; ≥2 prior lines, 10 mg/kg days 1 and 8 of 21 day cycle, N = 108): 33.3%
